Values quoted from earlier work, collected in patent US20080279914A1, “Transdermal composition comprising piroxicam-inorganic material complex and patch system comprising the same” (priority 2006, published 2008).

Conditions: orally administered

drug discharged unchanged in the urine: less than 5%
SMILES: CN1C(C(=O)Nc2ccccn2)=C(O)c2ccccc2S1(=O)=O [piroxicam]
